In PMC12181431, “Unveiling the structure, function and dynamics of StmPr1 in Stenotrophomonas maltophilia virulence” (Scientific Reports, 2025):
Like-named read-outs stand apart in the source and are kept apart here.

How the values were obtained:
StmPr1 = molecular target: T1, StmPr1 (Stenotrophomonas maltophilia, UniProt Q93IQ4); experiment: X-ray crystal structure ([…] Å) plus protease activity assay; type: biochemical
T1 construct: StmPr1 36 kDa (self-digested from 47 kDa, C-terminal extension cleaved)
T1 sequence (Q93IQ4 entry or part of it): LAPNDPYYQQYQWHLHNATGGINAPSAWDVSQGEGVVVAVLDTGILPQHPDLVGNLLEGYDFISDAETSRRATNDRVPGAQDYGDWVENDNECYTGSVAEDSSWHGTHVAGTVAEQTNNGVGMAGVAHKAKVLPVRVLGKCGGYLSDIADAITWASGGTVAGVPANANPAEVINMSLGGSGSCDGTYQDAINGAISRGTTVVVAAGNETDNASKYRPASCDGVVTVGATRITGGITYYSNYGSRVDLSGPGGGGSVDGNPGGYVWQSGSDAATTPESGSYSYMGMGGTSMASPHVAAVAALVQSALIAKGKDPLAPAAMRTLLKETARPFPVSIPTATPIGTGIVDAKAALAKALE

Proteinase K = molecular target: T2, Proteinase K (Parengyodontium album, UniProt P06873); experiment: protease activity assay (same assay as for StmPr1); type: biochemical
T2 construct: gene PROK
T2 sequence (P06873 106-384): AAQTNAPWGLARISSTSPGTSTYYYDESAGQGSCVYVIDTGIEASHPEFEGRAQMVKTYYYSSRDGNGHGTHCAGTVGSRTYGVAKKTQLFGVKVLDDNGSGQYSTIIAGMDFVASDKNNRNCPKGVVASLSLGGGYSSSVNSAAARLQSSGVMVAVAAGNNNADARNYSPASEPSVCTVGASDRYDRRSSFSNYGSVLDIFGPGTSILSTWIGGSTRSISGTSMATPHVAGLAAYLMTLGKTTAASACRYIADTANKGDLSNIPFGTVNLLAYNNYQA

Work on `CC(C)C[C@H](NC(=O)[C@H](Cc1ccccc1)NC(=O)c1cnccn1)B(O)O` [Bortezomib] yielded an IC50 (StmPr1; read-out: IC50) of 1970 nM and an IC50 (Proteinase K) of 1450 nM.
In the case of `O=S(=O)(F)Cc1ccccc1` [PMSF], the IC50 (StmPr1) is reported as 125000 nM.
